Results published in patent US7355063B2, “Shogaol compound and tyrosinase activity inhibitor comprising the compound” (Toagosei Co., Ltd., priority 2003, dated 2008).

Key:
[1] = Test of scavenging DPPH radical (Test Example 8, 517 nm); settings: final concentration of 10 μg/mL; 20 minutes, room temperature
Method: Using the compound 7 obtained in Example 2 as well as dl-α-tocopherol (manufactured by Tokyo Kasei Kogyo Co., Ltd.) and butylhydroxytoluene (BHT) as comparative controls, a test of scavenging DDPH (1,1-diphenyl-2-picrylhydrazyl) radical, a stable radical, was carried out.
1 ml of 200 μM DPPH ethanol solution was added to 800 μl of 100 mM Tris-HCl buffer (pH 7.4) and 200 μl of an ethanol solution of the compound 7 (a final concentration of 10 μg/mL), followed by sufficient stirring. After the resulting mixture was allowed to stand in a dark place at room temperature for 20 minutes, the absorbance at 517 nm was measured (absorbance of the test solution)
The compound 13 of the invention as well as dl-α-tocopherol and butylhydroxytoluene as a known radical scavenger were similarly tested.
As a control, 800 μl of 100 mM Tris-HCl buffer (pH 7.4), 200 μl of ethanol, and 1 ml of 200 μM DPPH ethanol solution were used in the same manner as described above and the absorbance was measured (absorbance of the control solution).
With the individual compounds, the same measurement was repeated three times, and the mean value was inserted in the following formula to calculate a DPPH radical-scavenging ratio (%). DPPH radical-scavenging ratio (%)=[1−(absorbance of sample solution/absorbance of control solution)]×100

[2] = Test of scavenging DPPH radical (Test Example 9, microplate reader, 540 nm); settings: final concentration of 25 μg/mL; 20 minutes, room temperature
Text: Using the compound 36 obtained in Example 20, the compound 37 obtained in Example 21, the compound 38 obtained in Example 22, the compound 39 obtained in Example 23, the compound 40 obtained in Example 24, the compound 42 obtained in Example 26, the compound 45 obtained in Example 29, the compound 46 obtained in Example 30, the compound 48 obtained in Example 32 and, as a comparative control, dl-α-tocopherol (manufactured by Tokyo Kasei Kogyo Co., Ltd.), a test of scavenging DDPH (1,1-diphenyl-2-picrylhydrazyl) radical, a stable radical, was carried out.
100 μl of 800 μM DPPH ethanol solution was added to 80 μl of 100 mM Tris-HCl buffer (pH 7.4) and 20 μl of an ethanol solution of the compound 36 (final concentration of 25 μg/mL), followed by sufficient stirring. After the resulting mixture was allowed to stand in a dark place at room temperature for 20 minutes, the absorbance at 540 nm was measured on a microplate reader (absorbance of the test solution).
The compounds 37, 38, 39, 40, 42, 45, 46, and 48 of the invention as well as dl-α-tocopherol as a known radical scavenger were similarly tested.
As a control, using 80 μl of 100 mM Tris-HCl buffer (pH 7.4), 20 μl of ethanol, and 100 μl of 800 μM DPPH ethanol solution, the same operation was carried out as described above and the absorbance was measured (absorbance of the control solution).
With the individual compounds, the same measurement was repeated four times, and the mean value was inserted in the following formula to calculate a DPPH radical-scavenging ratio. DPPH radical-scavenging ratio (%)=[1−(absorbance of sample solution/absorbance of control solution)]×100

[3] = Test of suppressing lipid peroxide formation using linoleic acid
Method: Using the compound 7 obtained in Example 2, the compound 38 obtained in Example 22, the compound 40 obtained in Example 24, the compound 42 obtained in Example 26, the compound 46 obtained in Example 30, and as a comparative control, dl-α-tocopherol (manufactured by Tokyo Kasei Kogyo Co., Ltd.), a test of suppressing lipid peroxide formation was carried out using linoleic acid.
(1) After ethanol (2.0 g) was added to linoleic acid (0.2 g, manufactured by Tokyo Kasei Kogyo Co., Ltd.), the compound 7 (0.01 g), and a surfactant Nissan OT-221 (0.4 g, manufactured by NOF Corporation) placed in a 50-ml screw vial and they was dissolved one another, distilled water (17.39 g) was added to the resulting solution and the whole was stirred. Then, the whole was tightly sealed and allowed to stand in a constant-temperature chamber at 40° C. Such sample was prepared in a duplex manner.
The same operation was carried out on the compounds 38, 40, 42, 46, dl-α-tocopherol, and a sample with addition of no test compound (blank).
(2) The amount of remaining linoleic acid after one week, 2 weeks, 3 weeks, and 4 weeks from the start of the test was quantitatively determined by HPLC.
The HPLC analytical conditions were as follows: Wavelength for detection: 210 nm; Mobile phase: a mixed solution of a Mc Ilvaine buffer adjusted to pH 2.6 and methanol (10:90); Flow rate: 1 ml/min; Column: ODS-80Ts (4.6 φmm×150 mm); and Column temperature: 40° C.
(3) Quantitative determination by HPLC was carried out on each sample one time. The ratio of remaining linoleic acid was calculated on the basis of the mean value of values obtained in two-times measurement.

mushroom tyrosinase = experiment: Tyrosinase activity inhibition test using L-dopa as substrate (Test Examples 3 to 6, microplate reader, 490 nm); type: biochemical; settings: Table 3
Method: Using the compound 37 obtained in Example 21, the compound 38 obtained in Example 22, the compound 39 obtained in Example 23, and arbutin (manufactured by Tokyo Kasei Kogyo Co., Ltd.) as a comparative control, a tyrosinase activity inhibition test was carried out using L-dopa as a substrate.
The specific test procedures are as follows. • (1) 72 μl of a phosphate buffer prepared by dissolving 1.000 g of sodium dihydrogen phosphate and 1.186 g of disodium hydrogen phosphate in 500 ml of distilled water, 80 μl of a substrate solution prepared by dissolving 32.7 mg of L-DOPA in 200 ml of distilled water, and 8 μl of a test solution prepared by dissolving the test compound in dimethyl sulfoxide were mixed together. • (2) 80 μl of an enzyme solution prepared by dissolving 3.0 mg (2400 units; manufactured by Sigma Corporation) of mushroom tyrosinase in 7.0 ml of distilled water and diluting the solution with the above phosphate buffer so as to make it five times in amount was added to the solution prepared in (1), and the whole was stirred for 15 seconds. The resulting solution was maintained at 25° C., and the absorbance at 490 nm was measured by a microplate reader one minute and 45 seconds later and 2 minutes and 45 seconds later. • (3) The test operations in the above (1) and (2) were conducted four times for the individual test compounds and blank test (only dimethyl sulfoxide), and the resulting numeric value was inserted in the following calculation formula and a mean value thereof was regarded as a tyrosinase activity inhibition ratio (%). Tyrosinase activity inhibition ratio (%)=[(T^1−T^2)/T^1]×100 • T^1=difference in absorbance of solution with addition of no test compound between 2 minutes and 45 seconds later and one minute and 45 seconds later • T^2=difference in absorbance of solution with addition of test compound was added between 2 minutes and 45 seconds later and one minute and 45 seconds later
(§1) Using the compound 42 obtained in Example 26, the compound 45 obtained in Example 29, the compound 46 obtained in Example 30, and arbutin (manufactured by Tokyo Kasei Kogyo Co., Ltd.) as a comparative control, a tyrosinase activity inhibition test was carried out using L-dopa as a substrate. The test procedure was in accordance with Test Example 3.
as §1, with “34” for “42”, “18,” for “26,”, “47” for “45”, “31,” for “29, the compound 46 obtained in Example 30,”
Using the compound 48 obtained in Example 32 and arbutin (manufactured by Tokyo Kasei Kogyo Co., Ltd.) as a comparative control, a tyrosinase activity inhibition test was carried out using L-dopa as a substrate. The test procedure was in accordance with Test Example 3.

Ratio of remaining linoleic acid (%) ([3]; After 1 week at 40° C.) | Ratio of remaining linoleic acid (%) ([3]; After 2 weeks at 40° C.) | Ratio of remaining linoleic acid (%) ([3]; After 3 weeks at 40° C.) | Ratio of remaining linoleic acid (%) ([3]; After 4 weeks at 40° C.) | Tyrosinase activity inhibition ratio (%) (mushroom tyrosinase; 0.5 mg/mL) | Tyrosinase activity inhibition ratio (%) (mushroom tyrosinase; 1 mg/mL) | SMILES | DPPH radical-scavenging ratio (%) [1] [%] | DPPH radical-scavenging ratio (%) [2] [%]
88.7 | 81.3 | 69.7 | 50.0 |  |  | Cc1c(C)c2c(c(C)c1O)CCC(C)(CCCC(C)CCCC(C)CCCC(C)C)O2 (racemic) [Tocopherol, dl-α-tocopherol] | 28.4 | 14.9
 |  |  |  | 51.3 | 75.2 | COc1cc(CCC(O)CCCCCCCCC(=O)O)ccc1O (stereo not drawn) [Compound 39] |  | 33.8
